Measurements published in US20240300927A1, “AMIDES AS CBL-B INHIBITORS” (Genentech, Inc., priority 2021, published 2024).

Legend:
LogD = assay type: physicochemical
[1] = In vitro plasma protein binding, human; assay type: in vitro ADME; conditions: pooled human plasma, read-out: PPB % (H/R/M) (converted)
Protocol: (§1) In vitro plasma protein binding (n=2) was determined in pooled mouse, rat, and human plasma (Bioreclamation, Inc., Hicksville, NY) by equilibrium dialysis using a Rapid Equilibrium Dialysis (RED) device (Pierce Biotechnology/Thermo Fisher Scientific; Rockford, IL) with a molecular weight cut-off of 8000 Daltons. Test compounds were added to plasma. Plasma samples were equilibriated with phosphate-buffered saline at 37° C. for 4 hours. Compound concentrations in post-dialysis plasma and buffer samples were measured by LC-MS/MS. The percent unbound fraction in plasma for each compound was calculated by dividing the compound concentration in the post-dialysis buffer by that measured in the post-dialysis plasma and multiplying by 100%.

[2] = Liver microsomes metabolic stability, mouse; assay type: in vitro ADME
Protocol: Metabolic stability of test compounds was evaluated in pooled rat, mouse, dog, and cynomolgus monkey liver microsomes (BD Biosciences, San Jose, CA). The incubation conditions were as follows: 1 μM of the tested compound, 1 mM NADPH, 0.5 mg/mL microsomal protein in 0.1 M potassium phosphate buffer (pH 7.4). Following a 5-minute pre-incubation period, the enzymatic reactions were initiated by the addition of NADPH and test compound to the microsomes diluted in phosphate buffered saline. The mixtures were incubated at 37° C. for 0, 20, 40, and 60 min.
Compound concentrations were assessed by LC-MS/MS. Intrinsic clearance based upon microsomal stability data was determined using a substrate depletion method and scaled to hepatic clearance using the well-stirred model (Obach, R. S.; Baxter, J. G.; Liston, T. E.; Silber, B. M.; Jones, B. C.; MacIntyre, F.; Rance, D. J.; Wastall, P., “The Prediction of Human Pharmacokinetic Parameters from Preclinical and in vitro Metabolism Data”, J. Pharmacol. Exp. Ther., (1997), 283 (1), 46-58).

[3] = target: Human Cbl-b (residues 40-426) (Homo sapiens (Human), UniProt Q13191); experiment: Cbl-b SPR assay (incl. multi-point chaser variation); assay type: binding
Protocol: Affinity of binding to Cbl-b and c-Cbl for compounds described herein can be assessed by surface plasmon resonance (SPR) according to the following protocol. All experiments were recorded on a Biacore™ 8K or Biacore™ 8K+ (Cytiva) with both surface preparation and experimental measurements performed at 20° C. in an assay buffer consisting of 50 mM HEPES, pH 7.5, 0.15 M NaCl, 0.001% (v/v) Tween® 20, 0.2 mM tris(2-carboxyethyl)phosphine, 0.025% (w/v) carboxymethylated dextran (average MW 10 kDa), 0.2% (w/v) PEG 3350, and 2% DMSO. […]
For SPR measurements, 6 concentrations with 2 fold serial dilution were measured with blanks flanking each series for double referencing. […] SPR sensorgrams were recorded in multi-cycle kinetics format, with a contact time of 60 seconds and a flow rate of 40 μl/min, the dissociation time was varied between 120-1200 seconds aiming for 4-5 half-lives of the measured interaction. […]
In the case of potent compounds, the protein-compound half-life cannot be accurately measured using routine fitting of the single cycle titration data. The kd is measured independently by determining the percentage unoccupied compound binding site over time by measuring the binding of a chaser compound measured by SPR.
Chaser binding was measured by a multicycle kinetics SPR experiment using a contact time of 20 seconds, a flow rate of […], and a dissociation time of 120 seconds. […]

[4] = In vitro plasma protein binding, mouse; assay type: in vitro ADME; conditions: pooled mouse plasma, read-out: PPB % (H/R/M) (converted)
Protocol: as §1

Chain of Human Cbl-b (residues 40-426) (Q13191 40-426): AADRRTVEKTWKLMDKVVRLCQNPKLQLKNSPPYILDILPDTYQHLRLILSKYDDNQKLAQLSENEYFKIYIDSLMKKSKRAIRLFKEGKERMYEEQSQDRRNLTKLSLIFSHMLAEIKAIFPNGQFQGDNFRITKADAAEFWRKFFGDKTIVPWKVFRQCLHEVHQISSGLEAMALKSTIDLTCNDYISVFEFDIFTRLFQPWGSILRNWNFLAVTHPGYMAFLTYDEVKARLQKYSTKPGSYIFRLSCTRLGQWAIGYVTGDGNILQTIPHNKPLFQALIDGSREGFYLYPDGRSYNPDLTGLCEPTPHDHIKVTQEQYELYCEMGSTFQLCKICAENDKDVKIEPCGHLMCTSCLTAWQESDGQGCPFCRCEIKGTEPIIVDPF

logD (LogD): 2.2
fraction unbound at 4 h [1]: 0.14
LM (H/R/M/D/C) [2]: 60
Kd ([3]; read-out: SPR Kd kin): 5.6 nM
SPR Kd kin (select.) ([3]; selectivity): 1.3 x
fraction unbound at 4 h [4]: 0.06
Compound: CC(C)[C@H]1CN(C)CCN1Cc1cc(C(=O)Nc2cccc(C3(Cc4nncn4C)CC(F)(F)C3)c2)nc(C2CC2)c1 [Compound 224, (S)-6-cyclopropyl-N-(3-(3,3-difluoro-1-((4-methyl-4H-1,2,4-triazol-3-yl)methyl)cyclobutyl)phenyl)-4-((2-isopropyl-4-methylpiperazin-1-yl)methyl)picolinamide]
